In publication PMC8126888 (RSC Medicinal Chemistry, 2020):
pIC50: −log10 of the molar value. Where two headings read alike, the source gives them in different places.

Key:
[1] = tested on: primary peritoneal mouse macrophages (PMM); experiment: cells; conditions: Macrophage, read-out: PMM IC50
[2] = physchem; conditions: HPLC, Ascentis Express RP Amide column, pH 7.4, eLogD, experimental
[3] = in vitro; conditions: human
[4] = in vitro; conditions: PAMPA
[5] = tested on: Leishmania infantum MHOM/MA(BE)/67/ITMAP263 intracellular amastigotes; experiment: microbe, parasite or virus in culture; conditions: Macrophage, in Mus musculus; for IC50: read-out: L. Inf. pIC50, from L. infantum intracellular amastigote IC50 (converted); for pIC50: read-out: L. infantum MHOM/MA(BE)/67/ITMAP263 intracellular amastigotes IC50, intracellular amastigotes
[6] = tested on: Trypanosoma cruzi, Tulahuen CL2, beta-galactosidase strain; experiment: microbe, parasite or virus in culture; conditions: MRC5, read-out: T. cruzi Tulahuen C4 (LacZ) IC50
[7] = in vitro; conditions: human, microsomes, pH 7.4, HLM CLint, human liver microsomes
[8] = in vitro; conditions: mouse, microsomes, pH 7.4, MLM CLint, mouse liver microsomes

| SMILES | pIC50 [1] | chromatographic logD [2] | CC50 at 3 days [3] | Papp [4] | IC50 [5] | pIC50 [5] | pIC50 [6] | microsomal CLint at 0.5 μM [7] | microsomal CLint at 0.5 μM [8] |
| --- | --- | --- | --- | --- | --- | --- | --- | --- | --- |
| COc1ccc(OC)c(S(=O)(=O)N(Cc2ccccc2)C2CCCN(C(C)=O)C2)c1 (centres unmarked) [DNDI0003367307] | < 4.19 | 3.3 | > 64 µM | 16.4 ×10⁻⁶ cm/s | > 64 µM | < 4.19 | 4.27 |  |  |
| COc1ccc(OC)c(S(=O)(=O)N(CCn2nc(C)cc2C)Cc2ccccc2)c1 [DNDI0003367308] | < 4.19 | 4.1 | 51 µM | 10.9 ×10⁻⁶ cm/s | 6.17 µM | 5.21 | 5.09 | 2270 µL/min/mg | 3100 µL/min/mg |
| COc1ccc(S(=O)(=O)N(Cc2ccccc2)Cc2ccccc2)cc1 [DNDI0003367309] | < 4.19 |  | > 64 µM | 1 ×10⁻⁶ cm/s | 45.7 µM | 4.34 | < 4.19 | 184 µL/min/mg | 2410 µL/min/mg |
| O=S(=O)(c1cc(F)ccc1F)N(CCO)Cc1ccccc1 [DNDI0003368289] | < 4.19 | 3.2 | > 64 µM | 15.7 ×10⁻⁶ cm/s | > 64 µM | < 4.19 | 4.33 | < 23 µL/min/mg |  |
| CN(C)CCN(Cc1ccccc1)S(=O)(=O)c1ccc(N)cc1 [DNDI0003368290] | < 4.19 | 2.5 | > 64 µM | 0.88 ×10⁻⁶ cm/s | > 64 µM | < 4.19 | < 4.19 | 56 µL/min/mg |  |
| CN(C)CCN(Cc1ccccc1)S(=O)(=O)c1ccc(N2C(=O)CCC2=O)cc1 [DNDI0003368291] | < 4.19 | 2.5 | > 64 µM | 1.64 ×10⁻⁶ cm/s | > 64 µM | < 4.19 | < 4.19 | < 23 µL/min/mg |  |
| CN(C)CCN(Cc1ccccc1)S(=O)(=O)c1ccc(NC(=O)CCCO)cc1 [DNDI0003368293] | < 4.19 | 2.9 | > 64 µM | 0.21 ×10⁻⁶ cm/s | > 64 µM | < 4.19 | < 4.19 | < 23 µL/min/mg |  |
| COc1ccc(OC)c(S(=O)(=O)N(CCN2CCOCC2)Cc2ccccc2)c1 [DNDI0003368294] | < 4.19 | 3.4 | > 64 µM | 5.27 ×10⁻⁶ cm/s | 9.12 µM | 5.04 | < 4.19 | 227 µL/min/mg |  |
| COc1ccc(C(=O)N2CCCC2)cc1S(=O)(=O)N(Cc1ccccc1)Cc1ccccc1 [DNDI0003368297] | 4.49 | 4.1 | > 64 µM | 4.91 ×10⁻⁶ cm/s | 0.49 µM | 6.32 | < 4.19 | 796 µL/min/mg |  |
| CNC(=O)c1ccc(OC)c(S(=O)(=O)N(Cc2ccccc2)Cc2ccccc2)c1 [DNDI0003368298] | 4.29 | 3.8 | 4.87 µM | 10.4 ×10⁻⁶ cm/s | 0.708 µM | 6.15 | < 4.19 | 316 µL/min/mg |  |
| COc1ccc(OC)c(S(=O)(=O)N(Cc2ccc(F)cc2)Cc2ccccn2)c1 [DNDI0003368394] | < 4.19 | 2.7 | > 64 µM | 60.1 ×10⁻⁶ cm/s | 0.977 µM | 6.01 | 4.68 | 151 µL/min/mg | 344 µL/min/mg |
| CCCCOc1ncccc1S(=O)(=O)NCc1ccc(F)cc1 [DNDI0003368396] | < 4.19 | 3.8 | > 64 µM | 14.9 ×10⁻⁶ cm/s | 8.71 µM | 5.06 | 4.53 | 1650 µL/min/mg |  |
| O=S(=O)(NC(CO)Cc1ccccc1)c1cc(F)ccc1F (centres unmarked) [DNDI0003368459] | < 4.19 | 2.8 | > 64 µM | 10.6 ×10⁻⁶ cm/s | > 64 µM | < 4.19 | < 4.19 | 42 µL/min/mg | 274 µL/min/mg |
| O=S1(=O)NC(Cc2ccccc2)COc2ccc(F)cc21 (centres unmarked) [DNDI0003368460] | < 4.19 | 3.3 | > 64 µM | 26.2 ×10⁻⁶ cm/s | > 64 µM | < 4.19 | < 4.19 |  |  |
| COC(=O)C(Cc1ccccc1)NS(=O)(=O)c1ccccc1Br (centres unmarked) [DNDI0003369003] | < 4.19 | 3.4 | > 64 µM | 20.4 ×10⁻⁶ cm/s | > 64 µM | < 4.19 | 4.24 |  |  |
| COC(=O)[C@H](CO)NS(=O)(=O)c1cc(Cl)ccc1OC [DNDI0003369004] | < 4.19 | 1.8 | > 64 µM | 9.07 ×10⁻⁶ cm/s | > 64 µM | < 4.19 | < 4.19 | 112 µL/min/mg | 230 µL/min/mg |
| CCOCCOc1ncccc1S(=O)(=O)NCc1ccc(F)cc1 [DNDI0003369119] | < 4.19 | 3.2 | > 64 µM | 23.8 ×10⁻⁶ cm/s | 33.1 µM | 4.48 | < 4.19 | 2210 µL/min/mg | 1530 µL/min/mg |
| O=S(=O)(NCc1ccc(F)cc1)c1cccnc1OCc1ccccc1 [DNDI0003369120] | 4.49 | 4 | 20.2 µM | 12.8 ×10⁻⁶ cm/s | 8.51 µM | 5.07 | 4.90 | 2740 µL/min/mg | 2750 µL/min/mg |
| O=S(=O)(NCc1ccc(F)cc1)c1cccnc1NCCN1CCOCC1 [DNDI0003369121] | < 4.19 | 3.1 | > 64 µM | 1.85 ×10⁻⁶ cm/s | > 64 µM | < 4.19 | < 4.19 | 1850 µL/min/mg | 1950 µL/min/mg |
| O=S(=O)(c1cc(F)ccc1F)N(Cc1ccccc1)C(CO)CO [DNDI0003369448] | < 4.19 | 2.9 | > 64 µM | 11.2 ×10⁻⁶ cm/s | 57.5 µM | 4.24 | 4.50 | < 23 µL/min/mg | 97 µL/min/mg |
| O=S(=O)(NC(CO)Cc1ccccc1)c1ccccc1Br (centres unmarked) [DNDI0003369449] | < 4.19 | 3 | > 64 µM | 17.4 ×10⁻⁶ cm/s | > 64 µM | < 4.19 | 4.48 | 244 µL/min/mg | 1370 µL/min/mg |
| O=S(=O)(c1ccccc1Br)N(Cc1ccccc1)C(CO)Cc1ccccc1 (centres unmarked) [DNDI0003369450] | < 4.19 | 4.6 | 21.3 µM | 2.82 ×10⁻⁶ cm/s | > 64 µM | < 4.19 | 5.26 | 1560 µL/min/mg | 2180 µL/min/mg |
| COc1ccc(CN2CCOCC2)cc1S(=O)(=O)N(Cc1ccc(F)cc1)Cc1ccc(F)cc1 [DNDI0003370082] | < 4.19 |  | > 64 µM | 0.74 ×10⁻⁶ cm/s | 0.525 µM | 6.28 | 5.81 | 49 µL/min/mg | 3200 µL/min/mg |
| COc1ccc(C#N)cc1S(=O)(=O)N(Cc1ccc(F)cc1)Cc1ccccn1 [DNDI0003370083] | < 4.19 | 3.6 | > 64 µM | 11.9 ×10⁻⁶ cm/s | 3.16 µM | 5.50 | 4.54 | 694 µL/min/mg | 1840 µL/min/mg |
| COc1ncccc1S(=O)(=O)N(Cc1ccc(F)cc1)Cc1ccccn1 [DNDI0003370084] | < 4.19 | 3.5 | > 64 µM | 27.4 ×10⁻⁶ cm/s | 7.41 µM | 5.13 | 4.47 | 696 µL/min/mg | 4620 µL/min/mg |
| COc1ccc(Cl)cc1S(=O)(=O)N(CC(=O)c1ccc(F)cc1)Cc1ccccc1 [DNDI0003371155] | 4.34 | 4.8 | > 64 µM | 0.24 ×10⁻⁶ cm/s | 41.7 µM | 4.38 | < 4.19 |  | 1900 µL/min/mg |
| C=C(c1ccc(F)cc1)N(Cc1ccccc1)S(=O)(=O)c1cc(Cl)ccc1O [DNDI0003371156] | 5.10 | 5.1 | 3.61 µM | 1.41 ×10⁻⁶ cm/s | 7.41 µM | 5.13 | 5.65 |  |  |
| O=C(CN(Cc1ccccc1)S(=O)(=O)c1cc(F)ccc1F)c1ccc(F)cc1 [DNDI0003371157] | < 4.19 | 4.6 | > 64 µM | 0.83 ×10⁻⁶ cm/s | > 64 µM | < 4.19 | < 4.19 | 756 µL/min/mg | 1380 µL/min/mg |
| CN(C)CCOc1ccc(F)cc1S(=O)(=O)N(Cc1ccc(F)cc1)Cc1ccc(F)cc1 [DNDI0003371161] | 5.10 | 4.9 | 7.62 µM | 0.06 ×10⁻⁶ cm/s | 2.19 µM | 5.66 | 5.66 | 214 µL/min/mg | 845 µL/min/mg |
